The kinase profiling compilation of Christmann-Franck et al. (2016)

Key:
Test in all cases: radiometric filter-binding kinase assay, Kinase HotSpot
Settings in all cases: compound 0.5 µM; ATP 10 µM
[1] = target: BRAF (human) (UniProt P15056)
[2] = target: HIPK3 (human) (UniProt Q9H422)
[3] = target: RPS6KA6 KD1 KD2 (human) (UniProt Q9UK32)
[4] = target: CDK1 CCNA2 (human) (UniProt P06493+P20248)
[5] = target: CHUK (human) (UniProt O15111)
[6] = target: NUAK2 (human) (UniProt Q9H093)
[7] = target: WNK3 (human) (UniProt Q9BYP7)
[8] = target: MAP3K8 (human) (UniProt P41279)
[9] = target: GSK3B (human) (UniProt P49841)
[10] = target: CAMK1 (human) (UniProt Q14012)
[11] = target: IKBKB (human) (UniProt O14920)
[12] = target: PAK1 (human) (UniProt Q13153)
Chain of PAK1 (human) (Q13153 whole entry, looked up): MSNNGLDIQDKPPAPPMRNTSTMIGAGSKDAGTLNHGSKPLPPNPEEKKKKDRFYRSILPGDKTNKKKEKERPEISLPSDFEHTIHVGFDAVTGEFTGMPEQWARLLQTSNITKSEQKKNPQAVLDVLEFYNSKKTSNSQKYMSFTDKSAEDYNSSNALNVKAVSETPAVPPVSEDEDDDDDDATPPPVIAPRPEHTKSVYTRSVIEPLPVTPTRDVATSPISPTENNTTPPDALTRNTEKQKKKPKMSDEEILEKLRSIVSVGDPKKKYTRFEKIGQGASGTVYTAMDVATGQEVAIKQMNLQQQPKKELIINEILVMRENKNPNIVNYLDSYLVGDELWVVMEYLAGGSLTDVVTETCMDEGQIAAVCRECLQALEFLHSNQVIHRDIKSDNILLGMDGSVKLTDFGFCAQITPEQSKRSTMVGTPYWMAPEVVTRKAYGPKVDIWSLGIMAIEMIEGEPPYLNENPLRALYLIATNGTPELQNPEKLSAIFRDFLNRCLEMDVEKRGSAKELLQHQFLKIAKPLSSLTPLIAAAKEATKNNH

[13] = target: DAPK3 (human) (UniProt O43293)
[14] = target: MAPKAPK3 (human) (UniProt Q16644)
[15] = target: PRKCB2 (human) (UniProt P05771)
Chain of PRKCB2 (human) (P05771 whole entry, looked up): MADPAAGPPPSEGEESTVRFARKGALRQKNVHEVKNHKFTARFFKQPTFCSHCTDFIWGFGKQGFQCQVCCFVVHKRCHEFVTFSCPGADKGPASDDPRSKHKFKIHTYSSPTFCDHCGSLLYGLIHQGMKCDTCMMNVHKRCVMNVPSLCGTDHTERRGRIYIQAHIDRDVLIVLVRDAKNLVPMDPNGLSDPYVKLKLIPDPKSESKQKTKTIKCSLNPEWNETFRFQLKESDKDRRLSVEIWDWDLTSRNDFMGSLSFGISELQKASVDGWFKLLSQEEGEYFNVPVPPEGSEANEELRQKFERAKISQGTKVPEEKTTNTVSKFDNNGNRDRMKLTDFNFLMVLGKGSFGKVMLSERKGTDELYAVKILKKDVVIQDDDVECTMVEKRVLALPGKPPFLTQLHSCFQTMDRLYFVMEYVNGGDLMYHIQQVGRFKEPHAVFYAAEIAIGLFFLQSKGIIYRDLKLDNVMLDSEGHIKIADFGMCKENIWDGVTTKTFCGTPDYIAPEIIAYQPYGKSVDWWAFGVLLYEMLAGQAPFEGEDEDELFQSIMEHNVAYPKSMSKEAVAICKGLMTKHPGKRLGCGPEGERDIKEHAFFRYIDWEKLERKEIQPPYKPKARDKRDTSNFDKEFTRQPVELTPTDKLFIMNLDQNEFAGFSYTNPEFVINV

[16] = target: PRKACA (human) (UniProt P17612)
[17] = target: MAP4K5 (human) (UniProt Q9Y4K4)
[18] = target: TGFBR2 (human) (UniProt P37173)
Chain of TGFBR2 (human) (P37173 whole entry, looked up): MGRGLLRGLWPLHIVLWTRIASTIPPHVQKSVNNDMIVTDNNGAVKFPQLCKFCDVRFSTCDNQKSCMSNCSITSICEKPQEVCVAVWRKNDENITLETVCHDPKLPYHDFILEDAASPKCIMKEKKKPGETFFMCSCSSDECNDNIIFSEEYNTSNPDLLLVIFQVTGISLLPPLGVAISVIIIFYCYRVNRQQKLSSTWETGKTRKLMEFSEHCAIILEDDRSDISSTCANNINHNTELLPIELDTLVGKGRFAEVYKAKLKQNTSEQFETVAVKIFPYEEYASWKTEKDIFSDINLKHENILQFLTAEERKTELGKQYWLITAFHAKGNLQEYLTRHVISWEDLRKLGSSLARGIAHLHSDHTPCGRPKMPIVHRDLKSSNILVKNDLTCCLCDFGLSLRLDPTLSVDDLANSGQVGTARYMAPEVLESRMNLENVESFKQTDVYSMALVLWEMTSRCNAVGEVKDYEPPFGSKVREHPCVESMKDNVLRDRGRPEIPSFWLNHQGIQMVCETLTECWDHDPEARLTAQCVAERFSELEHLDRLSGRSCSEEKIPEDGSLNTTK

[19] = target: EPHA3 (human) (UniProt P29320)
Chain of EPHA3 (human) (P29320 whole entry, looked up): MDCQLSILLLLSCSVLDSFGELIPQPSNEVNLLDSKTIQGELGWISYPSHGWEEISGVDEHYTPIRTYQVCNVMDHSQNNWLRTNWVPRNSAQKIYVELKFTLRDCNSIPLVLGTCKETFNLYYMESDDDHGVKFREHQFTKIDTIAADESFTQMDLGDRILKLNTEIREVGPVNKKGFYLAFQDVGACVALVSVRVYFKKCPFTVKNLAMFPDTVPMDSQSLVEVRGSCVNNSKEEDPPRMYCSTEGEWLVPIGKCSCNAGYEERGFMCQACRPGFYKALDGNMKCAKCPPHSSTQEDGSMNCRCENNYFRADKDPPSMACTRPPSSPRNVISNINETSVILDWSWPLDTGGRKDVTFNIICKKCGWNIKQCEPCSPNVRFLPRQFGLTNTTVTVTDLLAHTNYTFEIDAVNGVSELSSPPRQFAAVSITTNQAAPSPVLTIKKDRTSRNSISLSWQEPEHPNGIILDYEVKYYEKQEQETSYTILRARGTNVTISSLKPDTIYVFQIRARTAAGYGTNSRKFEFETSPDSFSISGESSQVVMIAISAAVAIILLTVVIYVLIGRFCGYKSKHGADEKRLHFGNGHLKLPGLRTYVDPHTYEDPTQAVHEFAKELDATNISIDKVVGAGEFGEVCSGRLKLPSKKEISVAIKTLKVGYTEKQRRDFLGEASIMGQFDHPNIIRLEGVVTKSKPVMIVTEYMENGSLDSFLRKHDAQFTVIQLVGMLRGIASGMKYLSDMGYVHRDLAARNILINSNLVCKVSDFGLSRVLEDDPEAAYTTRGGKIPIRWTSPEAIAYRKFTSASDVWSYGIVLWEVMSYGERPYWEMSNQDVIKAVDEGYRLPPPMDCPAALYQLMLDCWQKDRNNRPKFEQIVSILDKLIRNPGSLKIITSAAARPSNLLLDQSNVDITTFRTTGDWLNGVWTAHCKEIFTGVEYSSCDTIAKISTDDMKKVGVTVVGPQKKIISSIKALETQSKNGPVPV

[20] = target: SYK (human) (UniProt P43405)
[21] = target: NEK9 (human) (UniProt Q8TD19)
[22] = target: PTK6 (human) (UniProt Q13882)
[23] = target: PTK2B (human) (UniProt Q14289)
[24] = target: RAF1 (human) (UniProt P04049)
[25] = target: MAP3K7 TAB1 (human) (UniProt O43318+Q15750)
[26] = target: CSNK1D (human) (UniProt P48730)
Chain of CSNK1D (human) (P48730 whole entry, looked up): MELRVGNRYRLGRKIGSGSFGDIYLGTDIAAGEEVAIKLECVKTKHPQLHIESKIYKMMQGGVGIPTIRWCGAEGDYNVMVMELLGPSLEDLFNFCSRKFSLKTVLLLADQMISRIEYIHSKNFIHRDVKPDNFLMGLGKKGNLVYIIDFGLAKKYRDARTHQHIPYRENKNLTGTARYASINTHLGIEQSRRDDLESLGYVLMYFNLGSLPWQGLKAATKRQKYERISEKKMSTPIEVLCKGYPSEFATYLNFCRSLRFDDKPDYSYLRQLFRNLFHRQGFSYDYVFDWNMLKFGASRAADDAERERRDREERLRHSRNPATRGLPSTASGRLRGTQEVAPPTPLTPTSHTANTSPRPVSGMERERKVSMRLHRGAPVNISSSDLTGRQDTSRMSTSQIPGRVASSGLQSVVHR

[27] = target: PDPK1 (human) (UniProt O15530)
[28] = target: STK24 (human) (UniProt Q9Y6E0)
[29] = target: MAPK3 (human) (UniProt P27361)
Chain of MAPK3 (human) (P27361 whole entry, looked up): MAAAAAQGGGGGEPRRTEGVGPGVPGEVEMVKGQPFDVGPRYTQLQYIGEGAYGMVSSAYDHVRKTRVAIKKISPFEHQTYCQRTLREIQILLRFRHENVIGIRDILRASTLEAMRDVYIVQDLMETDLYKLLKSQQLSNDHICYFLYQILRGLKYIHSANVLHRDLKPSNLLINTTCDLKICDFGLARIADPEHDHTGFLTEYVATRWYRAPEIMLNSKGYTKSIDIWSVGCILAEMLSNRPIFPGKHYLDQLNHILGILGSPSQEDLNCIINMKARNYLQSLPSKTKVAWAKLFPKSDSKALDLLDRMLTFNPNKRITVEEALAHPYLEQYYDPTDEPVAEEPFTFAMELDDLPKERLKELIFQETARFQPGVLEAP

[30] = target: SRPK2 (human) (UniProt P78362)
Chain of SRPK2 (human) (P78362 whole entry, looked up): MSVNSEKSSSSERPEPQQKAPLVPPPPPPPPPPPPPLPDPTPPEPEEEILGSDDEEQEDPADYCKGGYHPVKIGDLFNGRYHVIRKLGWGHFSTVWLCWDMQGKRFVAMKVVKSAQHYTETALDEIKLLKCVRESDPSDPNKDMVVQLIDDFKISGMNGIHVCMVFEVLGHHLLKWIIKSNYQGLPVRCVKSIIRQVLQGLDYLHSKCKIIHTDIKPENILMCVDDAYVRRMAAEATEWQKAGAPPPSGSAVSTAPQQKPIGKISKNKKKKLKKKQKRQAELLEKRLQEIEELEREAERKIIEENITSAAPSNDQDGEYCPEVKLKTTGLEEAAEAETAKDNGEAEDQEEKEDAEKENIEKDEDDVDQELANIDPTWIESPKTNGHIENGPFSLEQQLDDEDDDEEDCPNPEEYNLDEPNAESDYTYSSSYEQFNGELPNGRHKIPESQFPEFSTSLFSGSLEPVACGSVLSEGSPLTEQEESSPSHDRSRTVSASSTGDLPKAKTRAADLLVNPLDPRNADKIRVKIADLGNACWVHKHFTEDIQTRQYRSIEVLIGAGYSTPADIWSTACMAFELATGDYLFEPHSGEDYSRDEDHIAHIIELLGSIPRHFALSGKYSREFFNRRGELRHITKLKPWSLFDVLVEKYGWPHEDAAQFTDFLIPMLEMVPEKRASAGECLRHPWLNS

[31] = target: MAPK11 (human) (UniProt Q15759)
[32] = target: PRKCH (human) (UniProt P24723)
[33] = target: MAPK10 (human) (UniProt P53779)
[34] = target: IKBKE (human) (UniProt Q14164)
[35] = target: CDK6 CCND3 (human) (UniProt P30281+Q00534)
Chain of CDK6 CCND3 (human) (P30281 whole entry, looked up): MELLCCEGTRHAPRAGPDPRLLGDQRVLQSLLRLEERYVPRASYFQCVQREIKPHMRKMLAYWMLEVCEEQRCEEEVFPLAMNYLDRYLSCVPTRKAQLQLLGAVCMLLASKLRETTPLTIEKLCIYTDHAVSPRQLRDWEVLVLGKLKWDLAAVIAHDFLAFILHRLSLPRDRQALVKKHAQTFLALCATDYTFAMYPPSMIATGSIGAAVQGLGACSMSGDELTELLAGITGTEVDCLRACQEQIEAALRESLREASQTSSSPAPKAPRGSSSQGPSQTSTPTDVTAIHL
Chain of CDK6 CCND3 (human) (Q00534 whole entry, looked up): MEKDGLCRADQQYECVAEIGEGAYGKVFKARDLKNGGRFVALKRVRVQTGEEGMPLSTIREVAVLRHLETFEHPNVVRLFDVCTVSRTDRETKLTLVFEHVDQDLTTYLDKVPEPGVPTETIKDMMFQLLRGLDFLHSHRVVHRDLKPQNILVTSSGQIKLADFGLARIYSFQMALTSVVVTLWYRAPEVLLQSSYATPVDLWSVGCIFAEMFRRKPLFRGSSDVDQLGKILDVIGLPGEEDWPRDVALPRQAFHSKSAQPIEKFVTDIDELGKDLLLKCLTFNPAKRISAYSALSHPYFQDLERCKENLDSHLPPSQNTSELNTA

[36] = target: MAP4K4 (human) (UniProt O95819)
[37] = target: CLK3 (human) (UniProt P49761)
[38] = target: DMPK (human) (UniProt Q09013)

| SMILES | residual activity [1] | residual activity [2] | residual activity [3] | residual activity [4] | residual activity [5] | residual activity [6] | residual activity [7] | residual activity [8] | residual activity [9] | residual activity [10] | residual activity [11] | residual activity [12] | residual activity [13] | residual activity [14] | residual activity [15] | residual activity [16] | residual activity [17] | residual activity [18] | residual activity [19] | residual activity [20] | further results |
| --- | --- | --- | --- | --- | --- | --- | --- | --- | --- | --- | --- | --- | --- | --- | --- | --- | --- | --- | --- | --- | --- |
| O=C1NC(=O)c2c1c1c3ccccc3[nH]c1n1cncc21 | 101% | 66.9% | 33.4% | 94.8% | 100% | 80.1% | 79.1% | 100% | 30.8% | 83.3% | 95.9% | 93.9% | 29.6% | 88.7% | 94.7% | 98.2% | 13.5% | 95.8% | 105% | 84.9% | residual activity [21]: 77.4%; residual activity [22]: 89%; residual activity [23]: 70.1%; residual activity [24]: 108%; residual activity [25]: 63.4%; residual activity [26]: 17.2%; residual activity [27]: 89%; residual activity [28]: 48.4%; residual activity [29]: 87.8%; residual activity [30]: 80.2%; residual activity [31]: 94.5%; residual activity [32]: 74.8%; residual activity [33]: 96%; residual activity [34]: 103%; residual activity [35]: 74.3%; residual activity [36]: 21.2%; residual activity [37]: 48.2%; residual activity [38]: 101% |
| CN(C)CCCn1cc(C2=C(c3c[nH]c4ccccc34)C(=O)NC2=O)c2ccccc21 | 103% | 102% | 3.97% | 100% | 105% | 66% | 98.4% | 93.9% | 7.01% | 82.7% | 119% | 84.2% | 84.5% | 95.3% | 12.6% | 72% | 68.5% | 90.4% | 93% | 90% | residual activity [21]: 100%; residual activity [22]: 95.3%; residual activity [23]: 98.5%; residual activity [24]: 118%; residual activity [25]: 93.6%; residual activity [26]: 97.6%; residual activity [27]: 83.3%; residual activity [28]: 52.9%; residual activity [29]: 108%; residual activity [30]: 94.4%; residual activity [31]: 96.1%; residual activity [32]: 7.67%; residual activity [33]: 99.3%; residual activity [34]: 89.4%; residual activity [35]: 73.3%; residual activity [36]: 55.9%; residual activity [37]: 94.3%; residual activity [38]: 94.7% |
| CN(C)c1ccc(/C=C2\C(=O)Nc3ccccc32)cc1 | 101% | 94.4% | 93.9% | 96.9% | 93.4% | 94.3% | 98.1% | 99.6% | 111% | 104% | 105% | 95.7% | 101% | 100% | 103% | 104% | 84.5% | 124% | 102% | 90.4% | residual activity [21]: 99.8%; residual activity [22]: 98.8%; residual activity [23]: 94.5%; residual activity [24]: 101%; residual activity [25]: 100%; residual activity [26]: 69%; residual activity [27]: 82.3%; residual activity [28]: 96.7%; residual activity [29]: 102%; residual activity [30]: 100%; residual activity [31]: 93.5%; residual activity [32]: 92.3%; residual activity [33]: 82.9%; residual activity [34]: 98.2%; residual activity [35]: 96.4%; residual activity [36]: 74.5%; residual activity [37]: 89.4%; residual activity [38]: 105% |
